Reference: patent US9340590B2 (priority 2011, dated 2016)
Positions of bridges follow the written chain, without caps; N, C: chain ends. Non-standard residues stand in square brackets, D forms with d. Residues, ends and D or L forms follow the SMILES beside them. *: point of attachment. Phe(4-guanidino) = N=C(N)Nc1ccc(C[C@H](N)C(=O)O)cc1; Pent4ynoyl = C#CCCC(=O)*; Dab = NCC[C@H](N)C(=O)O; Nva = CCC[C@H](N)C(=O)O; Abu = CC[C@H](N)C(=O)O

Tests used:
Assay in all cases: cell-based
[1] = target: hNav1.7 (Homo sapiens, UniProt Q15858); assay type: cell-based; conditions: IonWorks Quattro, use-dependent block, hNav1.7; read-out: IWQ Use Nav1.7
[2] = target: hNav1.5 (Homo sapiens, UniProt Q14524); conditions: IonWorks Quattro, use-dependent block, hNav1.5; read-out: IWQ Use Nav1.5
[3] = target: hNav1.3 (Homo sapiens, UniProt Q9NY46); conditions: IonWorks Quattro, use-dependent block, hNav1.3; read-out: IWQ Use Nav1.3
hNav1.3, sequence (Q9NY46 whole entry, looked up): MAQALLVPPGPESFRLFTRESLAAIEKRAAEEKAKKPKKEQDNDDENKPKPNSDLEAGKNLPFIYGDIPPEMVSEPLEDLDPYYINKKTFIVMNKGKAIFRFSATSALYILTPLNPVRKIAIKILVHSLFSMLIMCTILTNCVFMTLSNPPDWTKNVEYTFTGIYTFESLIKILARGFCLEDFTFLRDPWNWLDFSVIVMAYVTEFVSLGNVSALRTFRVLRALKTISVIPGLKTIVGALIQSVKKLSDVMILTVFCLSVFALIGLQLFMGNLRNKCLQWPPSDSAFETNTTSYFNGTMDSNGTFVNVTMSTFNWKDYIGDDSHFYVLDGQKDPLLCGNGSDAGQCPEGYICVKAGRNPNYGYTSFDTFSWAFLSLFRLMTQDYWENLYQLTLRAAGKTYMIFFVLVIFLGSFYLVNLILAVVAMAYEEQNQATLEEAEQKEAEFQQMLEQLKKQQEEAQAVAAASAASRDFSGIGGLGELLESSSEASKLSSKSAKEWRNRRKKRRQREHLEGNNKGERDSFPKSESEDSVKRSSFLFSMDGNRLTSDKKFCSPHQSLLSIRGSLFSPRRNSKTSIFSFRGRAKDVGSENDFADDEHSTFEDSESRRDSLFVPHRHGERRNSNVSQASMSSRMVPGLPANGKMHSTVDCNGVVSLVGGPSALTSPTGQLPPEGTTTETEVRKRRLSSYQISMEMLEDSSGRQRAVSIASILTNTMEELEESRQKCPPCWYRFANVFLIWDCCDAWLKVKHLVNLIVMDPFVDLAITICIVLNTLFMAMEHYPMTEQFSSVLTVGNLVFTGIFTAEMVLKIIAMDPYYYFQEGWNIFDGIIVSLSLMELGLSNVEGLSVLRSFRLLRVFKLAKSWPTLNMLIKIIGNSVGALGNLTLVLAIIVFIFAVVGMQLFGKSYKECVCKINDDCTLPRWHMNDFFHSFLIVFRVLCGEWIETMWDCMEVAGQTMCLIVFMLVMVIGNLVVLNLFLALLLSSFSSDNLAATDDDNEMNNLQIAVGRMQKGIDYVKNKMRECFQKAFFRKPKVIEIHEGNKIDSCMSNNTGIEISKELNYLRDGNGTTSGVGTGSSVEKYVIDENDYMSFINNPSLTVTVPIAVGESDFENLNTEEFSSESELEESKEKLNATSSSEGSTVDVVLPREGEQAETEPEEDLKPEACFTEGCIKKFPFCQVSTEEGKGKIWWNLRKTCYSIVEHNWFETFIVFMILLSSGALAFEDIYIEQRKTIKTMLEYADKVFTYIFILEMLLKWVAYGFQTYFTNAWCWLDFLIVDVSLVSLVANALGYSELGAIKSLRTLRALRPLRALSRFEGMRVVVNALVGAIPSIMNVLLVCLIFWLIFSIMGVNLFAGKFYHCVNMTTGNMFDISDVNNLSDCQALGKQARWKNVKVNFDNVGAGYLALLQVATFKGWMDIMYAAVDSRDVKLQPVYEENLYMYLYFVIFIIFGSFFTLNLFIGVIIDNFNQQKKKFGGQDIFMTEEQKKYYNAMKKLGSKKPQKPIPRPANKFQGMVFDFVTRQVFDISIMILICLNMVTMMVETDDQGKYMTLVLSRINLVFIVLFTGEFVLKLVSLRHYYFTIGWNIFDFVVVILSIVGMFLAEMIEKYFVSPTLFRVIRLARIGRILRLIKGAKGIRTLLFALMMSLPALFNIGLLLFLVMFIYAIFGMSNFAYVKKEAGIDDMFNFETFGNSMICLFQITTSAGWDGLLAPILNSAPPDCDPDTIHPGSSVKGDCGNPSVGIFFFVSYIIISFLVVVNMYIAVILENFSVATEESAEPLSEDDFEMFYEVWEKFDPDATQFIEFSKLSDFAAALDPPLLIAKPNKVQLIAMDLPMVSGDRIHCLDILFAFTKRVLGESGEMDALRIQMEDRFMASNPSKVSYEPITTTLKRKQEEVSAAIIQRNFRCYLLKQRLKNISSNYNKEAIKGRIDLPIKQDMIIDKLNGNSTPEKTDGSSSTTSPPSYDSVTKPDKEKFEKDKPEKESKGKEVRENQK

hNav1.5, sequence (Q14524 whole entry, looked up): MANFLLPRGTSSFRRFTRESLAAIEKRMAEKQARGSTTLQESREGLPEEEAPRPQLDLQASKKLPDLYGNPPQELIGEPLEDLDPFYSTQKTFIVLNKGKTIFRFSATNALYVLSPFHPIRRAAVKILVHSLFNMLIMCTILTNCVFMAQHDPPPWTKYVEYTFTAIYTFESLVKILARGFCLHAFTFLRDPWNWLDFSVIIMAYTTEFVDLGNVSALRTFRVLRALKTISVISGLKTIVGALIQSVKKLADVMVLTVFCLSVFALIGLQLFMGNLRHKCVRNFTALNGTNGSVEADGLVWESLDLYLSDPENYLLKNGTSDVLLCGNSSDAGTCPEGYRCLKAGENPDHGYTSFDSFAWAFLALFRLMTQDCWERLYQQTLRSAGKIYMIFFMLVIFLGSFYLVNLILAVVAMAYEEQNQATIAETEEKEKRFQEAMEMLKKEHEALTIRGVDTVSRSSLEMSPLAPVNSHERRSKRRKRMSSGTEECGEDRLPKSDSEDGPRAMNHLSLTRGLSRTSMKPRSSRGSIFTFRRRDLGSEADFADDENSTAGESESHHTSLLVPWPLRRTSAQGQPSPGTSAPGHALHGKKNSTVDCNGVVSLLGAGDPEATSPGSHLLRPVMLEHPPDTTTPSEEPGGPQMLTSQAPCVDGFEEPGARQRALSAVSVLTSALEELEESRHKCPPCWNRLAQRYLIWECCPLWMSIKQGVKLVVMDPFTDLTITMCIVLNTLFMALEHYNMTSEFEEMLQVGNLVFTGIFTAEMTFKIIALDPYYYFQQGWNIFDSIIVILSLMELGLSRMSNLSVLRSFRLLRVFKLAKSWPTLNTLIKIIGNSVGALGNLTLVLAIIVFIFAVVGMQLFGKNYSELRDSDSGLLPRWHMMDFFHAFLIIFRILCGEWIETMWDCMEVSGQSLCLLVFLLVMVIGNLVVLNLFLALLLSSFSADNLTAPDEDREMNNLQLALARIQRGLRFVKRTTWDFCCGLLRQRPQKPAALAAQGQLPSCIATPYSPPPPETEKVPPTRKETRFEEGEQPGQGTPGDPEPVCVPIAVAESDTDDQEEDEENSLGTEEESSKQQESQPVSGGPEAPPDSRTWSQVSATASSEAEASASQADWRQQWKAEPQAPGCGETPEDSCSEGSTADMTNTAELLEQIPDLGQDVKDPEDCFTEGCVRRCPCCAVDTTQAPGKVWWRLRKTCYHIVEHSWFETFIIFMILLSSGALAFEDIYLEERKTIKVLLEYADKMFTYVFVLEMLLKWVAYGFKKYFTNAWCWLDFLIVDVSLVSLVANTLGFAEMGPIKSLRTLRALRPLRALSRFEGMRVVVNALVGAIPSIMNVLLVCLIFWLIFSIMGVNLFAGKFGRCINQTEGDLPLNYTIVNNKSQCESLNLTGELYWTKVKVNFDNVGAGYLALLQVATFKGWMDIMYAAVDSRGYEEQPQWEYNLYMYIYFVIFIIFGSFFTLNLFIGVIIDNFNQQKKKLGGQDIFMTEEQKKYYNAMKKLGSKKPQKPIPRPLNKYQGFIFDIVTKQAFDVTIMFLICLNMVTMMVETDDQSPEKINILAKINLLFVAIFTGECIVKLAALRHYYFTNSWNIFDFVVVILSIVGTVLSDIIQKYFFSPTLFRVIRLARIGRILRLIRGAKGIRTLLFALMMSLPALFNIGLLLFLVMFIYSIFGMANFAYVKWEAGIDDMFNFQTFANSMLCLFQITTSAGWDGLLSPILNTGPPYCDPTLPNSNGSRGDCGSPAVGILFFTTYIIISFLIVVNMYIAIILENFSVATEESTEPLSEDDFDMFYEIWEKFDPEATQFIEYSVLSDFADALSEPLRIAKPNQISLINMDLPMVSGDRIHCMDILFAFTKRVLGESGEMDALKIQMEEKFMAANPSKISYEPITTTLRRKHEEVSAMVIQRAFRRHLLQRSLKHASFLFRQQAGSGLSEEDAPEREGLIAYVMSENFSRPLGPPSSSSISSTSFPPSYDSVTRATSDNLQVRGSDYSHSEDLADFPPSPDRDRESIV

Row | Structure (SMILES) | IC50 [1] [µM] | IC50 [2] [µM] | IC50 [3] [µM]
1 | C#CCCC(=O)N[C@@H](CC(=O)O)C(=O)N[C@H]1CSSC[C@@H]2NC(=O)[C@@H]3CSSC[C@@H](C(=O)N[C@@H](CCCCN)C(=O)N[C@@H](Cc4ccc(O)cc4)C(=O)N[C@H](C(=O)N[C@@H](Cc4ccccc4)C(N)=O)C(C)C)NC(=O)[C@H](Cc4c[nH]c5ccccc45)NC(=O)[C@H](CCCCN)NC(=O)[C@H](Cc4c[nH]cn4)NC(=O)[C@H]([C@@H](C)O)NC(=O)[C@H](CCCNC(=N)N)NC(=O)[C@H](CO)NC(=O)[C@H](CSSC[C@H](NC(=O)[C@H](CCCCN)NC(=O)[C@H](CCCNC(=N)N)NC(=O)[C@H](CC(C)C)NC(=O)[C@H](CC)NC(=O)CNC(=O)[C@H](CC(C)C)NC1=O)C(=O)N[C@@H]([C@@H](C)CC)C(=O)N1CCC[C@H]1C(=O)N[C@@H](CC(=O)O)C(=O)N[C@@H](CC)C(=O)N[C@@H](CC(=O)O)C(=O)N[C@@H](CCCCN)C(=O)N3)NC(=O)[C@H](C(C)C)NC(=O)[C@H](CC(C)C)NC(=O)[C@H](CC(N)=O)NC(=O)[C@@H]1CCCN1C(=O)[C@H](CCCNC(=N)N)NC2=O [compound 758] (Pent4ynoyl-DCLG[Abu]LRKCIPD[Abu]DKCCRPNLVCSRTHKWCKYVF-NH2; disulfide 2-17, 9-23, 16-30) | 0.46 | 32.7 | 0.69
2 | C#CCCC(=O)N[C@@H](CC(=O)O)C(=O)N[C@H]1CSSC[C@@H]2NC(=O)[C@@H]3CSSC[C@@H](C(=O)N[C@@H](CCCCN)C(=O)N[C@@H](Cc4ccc(O)cc4)C(=O)N[C@H](C(=O)N[C@@H](Cc4ccccc4)C(N)=O)C(C)C)NC(=O)[C@H](Cc4c[nH]c5ccccc45)NC(=O)[C@H](CCCNC(=N)N)NC(=O)[C@H](Cc4c[nH]cn4)NC(=O)[C@H]([C@@H](C)O)NC(=O)[C@H](CCCNC(=N)N)NC(=O)[C@H](CO)NC(=O)[C@H](CSSC[C@H](NC(=O)[C@H](CCCCN)NC(=O)[C@H](CCCNC(=N)N)NC(=O)[C@H](CC(C)C)NC(=O)[C@H](CCC)NC(=O)CNC(=O)[C@H](CC(C)C)NC1=O)C(=O)N[C@@H]([C@@H](C)CC)C(=O)N1CCC[C@H]1C(=O)N[C@@H](CC(=O)O)C(=O)N[C@@H](CC)C(=O)N[C@@H](CC(=O)O)C(=O)N[C@@H](CCCCN)C(=O)N3)NC(=O)[C@H](C(C)C)NC(=O)[C@H](CC(C)C)NC(=O)[C@H](CC(N)=O)NC(=O)[C@@H]1CCCN1C(=O)[C@H](CCCNC(=N)N)NC2=O [compound 759] (Pent4ynoyl-DCLG[Nva]LRKCIPD[Abu]DKCCRPNLVCSRTHRWCKYVF-NH2; disulfide 2-17, 9-23, 16-30) | 0.1 | 46.2 | 0.23
3 | C#CCCC(=O)N[C@@H](CC(=O)O)C(=O)N[C@H]1CSSC[C@@H]2NC(=O)[C@@H]3CSSC[C@@H](C(=O)N[C@@H](CCCCN)C(=O)N[C@@H](Cc4ccc(O)cc4)C(=O)N[C@H](C(=O)N[C@@H](Cc4ccccc4)C(N)=O)C(C)C)NC(=O)[C@H](Cc4c[nH]c5ccccc45)NC(=O)[C@H](CCCCN)NC(=O)[C@H](Cc4c[nH]cn4)NC(=O)[C@H]([C@@H](C)O)NC(=O)[C@H](CCCNC(=N)N)NC(=O)[C@H](CO)NC(=O)[C@H](CSSC[C@H](NC(=O)[C@H](CCCCN)NC(=O)[C@H](CCCNC(=N)N)NC(=O)[C@H](CC(C)C)NC(=O)[C@H](CCC)NC(=O)CNC(=O)[C@H](CC(C)C)NC1=O)C(=O)N[C@@H]([C@@H](C)CC)C(=O)N1CCC[C@H]1C(=O)N[C@@H](CC(=O)O)C(=O)N[C@@H](CC)C(=O)N[C@@H](CC(=O)O)C(=O)N[C@@H](CCCCN)C(=O)N3)NC(=O)[C@H](C(C)C)NC(=O)[C@H](CC(C)C)NC(=O)[C@H](CC(N)=O)NC(=O)[C@@H]1CCCN1C(=O)[C@H](CCCNC(=N)N)NC2=O [compound 760] (Pent4ynoyl-DCLG[Nva]LRKCIPD[Abu]DKCCRPNLVCSRTHKWCKYVF-NH2; disulfide 2-17, 9-23, 16-30) | 0.19 | 35.2 | 0.25
4 | CC[C@H](C)[C@@H]1NC(=O)[C@@H]2CSSC[C@@H]3NC(=O)[C@H](C(C)C)NC(=O)[C@H](CC(C)C)NC(=O)[C@H](CC(N)=O)NC(=O)[C@@H]4CCCN4C(=O)[C@H](CCCNC(=N)N)NC(=O)[C@H](CSSC[C@H](NC(=O)[C@@H](N)CC(=O)O)C(=O)N[C@@H](CC(C)C)C(=O)NCC(=O)N[C@@H](C)C(=O)N[C@@H](CCSC)C(=O)N[C@@H](CCCNC(=N)N)C(=O)N[C@@H](CCCCN)C(=O)N2)NC(=O)[C@H](CSSC[C@@H](C(=O)N[C@@H](CCCCN)C(=O)N[C@@H](Cc2ccc(O)cc2)C(=O)N[C@H](C(=O)N[C@@H](Cc2ccccc2)C(N)=O)C(C)C)NC(=O)[C@H](Cc2c[nH]c4ccccc24)NC(=O)[C@H](Cc2ccc(NC(=N)N)cc2)NC(=O)[C@H](Cc2c[nH]cn2)NC(=O)[C@H]([C@@H](C)O)NC(=O)[C@H](CCCNC(=N)N)NC(=O)[C@H](CO)NC3=O)NC(=O)[C@H](CCCCN)NC(=O)[C@H](CC(=O)O)NC(=O)[C@H](CC(N)=O)NC(=O)[C@H](CC(=O)O)NC(=O)[C@@H]2CCCN2C1=O [compound 761] (H-DCLGAMRKCIPDNDKCCRPNLVCSRTH[Phe(4-guanidino)]WCKYVF-NH2; disulfide 2-17, 9-23, 16-30) | 0.16 | 26.9 | 0.63
5 | CC[C@H](C)[C@@H]1NC(=O)[C@@H]2CSSC[C@@H]3NC(=O)[C@H](C(C)C)NC(=O)[C@H](CC(C)C)NC(=O)[C@H](CC(N)=O)NC(=O)[C@@H]4CCCN4C(=O)[C@H](CCCNC(=N)N)NC(=O)[C@H](CSSC[C@H](NC(=O)[C@@H](N)CC(=O)O)C(=O)N[C@@H](CC(C)C)C(=O)NCC(=O)N[C@@H](C)C(=O)N[C@@H](CCSC)C(=O)N[C@@H](CCCNC(=N)N)C(=O)N[C@@H](CCCCN)C(=O)N2)NC(=O)[C@H](CSSC[C@@H](C(=O)N[C@@H](CCCCN)C(=O)N[C@@H](Cc2ccc(O)cc2)C(=O)N[C@H](C(=O)N[C@@H](Cc2ccccc2)C(N)=O)C(C)C)NC(=O)[C@H](Cc2c[nH]c4ccccc24)NC(=O)[C@H](CCN)NC(=O)[C@H](Cc2c[nH]cn2)NC(=O)[C@H]([C@@H](C)O)NC(=O)[C@H](CCCNC(=N)N)NC(=O)[C@H](CO)NC3=O)NC(=O)[C@H](CCCCN)NC(=O)[C@H](CC(=O)O)NC(=O)[C@H](CC(N)=O)NC(=O)[C@H](CC(=O)O)NC(=O)[C@@H]2CCCN2C1=O [compound 762] (H-DCLGAMRKCIPDNDKCCRPNLVCSRTH[Dab]WCKYVF-NH2; disulfide 2-17, 9-23, 16-30) | 0.32 | 23.3 | 0.86
6 | CC[C@H](C)[C@@H]1NC(=O)[C@@H]2CSSC[C@@H]3NC(=O)[C@H](C(C)C)NC(=O)[C@H](CC(C)C)NC(=O)[C@H](CC(N)=O)NC(=O)[C@@H]4CCCN4C(=O)[C@H](CCCNC(=N)N)NC(=O)[C@H](CSSC[C@H](NC(=O)[C@@H](N)CC(=O)O)C(=O)N[C@@H](CC(C)C)C(=O)NCC(=O)N[C@@H](C)C(=O)N[C@@H](CCSC)C(=O)N[C@@H](CCCNC(=N)N)C(=O)N[C@@H](CCCCN)C(=O)N2)NC(=O)[C@H](CSSC[C@@H](C(=O)N[C@@H](CCCCN)C(=O)N[C@@H](Cc2ccc(O)cc2)C(=O)N[C@H](C(=O)N[C@@H](Cc2ccccc2)C(N)=O)C(C)C)NC(=O)[C@H](Cc2c[nH]c4ccccc24)NC(=O)[C@H](Cc2ccccc2)NC(=O)[C@H](Cc2c[nH]cn2)NC(=O)[C@H]([C@@H](C)O)NC(=O)[C@H](CCCNC(=N)N)NC(=O)[C@H](CO)NC3=O)NC(=O)[C@H](CCCCN)NC(=O)[C@H](CC(=O)O)NC(=O)[C@H](CC(N)=O)NC(=O)[C@H](CC(=O)O)NC(=O)[C@@H]2CCCN2C1=O [compound 764] (H-DCLGAMRKCIPDNDKCCRPNLVCSRTHFWCKYVF-NH2; disulfide 2-17, 9-23, 16-30) | 4.1 | 41.4 | > 5
